Test results taken from PubChem BioAssay AID1963830 (Molecular Pharmacology Branch, DTP, NCI, 2024).

Tested on: 922993-354-T-J3-PDC complex spheroid viability
Test: Anticancer human tumor 922993-354-T-J3-PDC patient-derived endometrial carcinoma cell line growth inhibition [POLQ]
Settings: for IC50: curve of first compound; for viability, T/C: stronger effect = lower value
In short: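 Three-cell-type spheroids modelling solid tumor plus stroma served as the readout system; POL inhibitors were tested individually and in combination, concentration ranges set by clinical Cmax where known.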

[1] = second compound 0.0316 µM, first compound 0.0316 µM
[2] = second compound 0.0316 µM, first compound 0.1 µM
[3] = second compound 0.0316 µM, first compound 0.316 µM
[4] = second compound 0.0316 µM, first compound 1 µM
[5] = second compound 0.0316 µM, first compound 3.16 µM
[6] = second compound 0.0316 µM, first compound 10 µM
[7] = second compound 0.1 µM, first compound 0.0316 µM
[8] = second compound 0.1 µM, first compound 0.1 µM
[9] = second compound 0.1 µM, first compound 0.316 µM
[10] = second compound 0.1 µM, first compound 1 µM
[11] = second compound 0.1 µM, first compound 3.16 µM
[12] = second compound 0.1 µM, first compound 10 µM
[13] = second compound 0.316 µM, first compound 0.0316 µM
[14] = second compound 0.316 µM, first compound 0.1 µM
[15] = second compound 0.316 µM, first compound 0.316 µM
[16] = second compound 0.316 µM, first compound 1 µM
[17] = second compound 0.316 µM, first compound 3.16 µM
[18] = second compound 0.316 µM, first compound 10 µM
[19] = second compound 1 µM, first compound 0.0316 µM
[20] = second compound 1 µM, first compound 0.1 µM
[21] = second compound 1 µM, first compound 0.316 µM
[22] = second compound 1 µM, first compound 1 µM
[23] = second compound 1 µM, first compound 3.16 µM
[24] = second compound 1 µM, first compound 10 µM
[25] = second compound 3.16 µM, first compound 0.0316 µM
[26] = second compound 3.16 µM, first compound 0.1 µM
[27] = second compound 3.16 µM, first compound 0.316 µM
[28] = second compound 3.16 µM, first compound 1 µM
[29] = second compound 3.16 µM, first compound 3.16 µM
[30] = second compound 3.16 µM, first compound 10 µM
[31] = second compound 10 µM, first compound 0.0316 µM
[32] = second compound 10 µM, first compound 0.1 µM
[33] = second compound 10 µM, first compound 0.316 µM
[34] = second compound 10 µM, first compound 1 µM
[35] = second compound 10 µM, first compound 3.16 µM
[36] = second compound 10 µM, first compound 10 µM
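Note: spheroids exposed to the agents for one week.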
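Throughout, for viability, T/C: 100% = DMSO vehicle control wells.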

Work on `CC(=O)O[C@H]1C(=O)[C@@]2(C)[C@H]([C@H](OC(=O)c3ccccc3)[C@]3(O)C[C@H](OC(=O)[C@H](O)[C@@H](NC(=O)c4ccccc4)c4ccccc4)C(C)=C1C3(C)C)[C@]1(OC(C)=O)CO[C@@H]1C[C@@H]2O` + Cc1cccc(N(C)C(=O)C2C(O)CCN2c2nc(C)cc(C(F)(F)F)c2C#N)c1 yielded an IC50 (second compound 0.0316 µM) of over 3 µM, an IC50 (second compound 0.1 µM) of over 3 µM and an IC50 (second compound 0.316 µM) of over 3 µM. For the same compound, the IC50 (second compound 1 µM) was over 3 µM, the IC50 (second compound 3.16 µM) was over 3 µM and the IC50 (second compound 10 µM) was over 3 µM. It also gave a viability, T/C (second compound 0.0316 µM, first compound 0.00949 µM) of 100%, a viability, T/C (second compound 0.0316 µM, first compound 0.03 µM) of 102% and a viability, T/C (second compound 0.0316 µM, first compound 0.0949 µM) of 101%. It also gave a viability, T/C (second compound 0.0316 µM, first compound 0.3 µM) of 103%, a viability, T/C (second compound 0.0316 µM, first compound 0.949 µM) of 98.5% and a viability, T/C (second compound 0.0316 µM, first compound 3 µM) of 76.6%. It also gave a viability, T/C (second compound 0.1 µM, first compound 0.00949 µM) of 105%, a viability, T/C (second compound 0.1 µM, first compound 0.03 µM) of 107% and a viability, T/C (second compound 0.1 µM, first compound 0.0949 µM) of 99.4%. For the same compound, the viability, T/C (second compound 0.1 µM, first compound 0.3 µM) was 99.8%, the viability, T/C (second compound 0.1 µM, first compound 0.949 µM) was 98.9% and the viability, T/C (second compound 0.1 µM, first compound 3 µM) was 66.9%. The viability, T/C (second compound 0.316 µM, first compound 0.00949 µM) was 104%, the viability, T/C (second compound 0.316 µM, first compound 0.03 µM) was 103% and the viability, T/C (second compound 0.316 µM, first compound 0.0949 µM) was 99.9%. The viability, T/C (second compound 0.316 µM, first compound 0.3 µM) was 103%, the viability, T/C (second compound 0.316 µM, first compound 0.949 µM) was 95.5% and the viability, T/C (second compound 0.316 µM, first compound 3 µM) was 73.3%. For the same compound, the viability, T/C (second compound 1 µM, first compound 0.00949 µM) was 104%, the viability, T/C (second compound 1 µM, first compound 0.03 µM) was 98.2% and the viability, T/C (second compound 1 µM, first compound 0.0949 µM) was 99%. For the same compound, the viability, T/C (second compound 1 µM, first compound 0.3 µM) was 101%, the viability, T/C (second compound 1 µM, first compound 0.949 µM) was 91.8% and the viability, T/C (second compound 1 µM, first compound 3 µM) was 64.8%. For the same compound, the viability, T/C (second compound 3.16 µM, first compound 0.00949 µM) was 99.8%, the viability, T/C (second compound 3.16 µM, first compound 0.03 µM) was 105% and the viability, T/C (second compound 3.16 µM, first compound 0.0949 µM) was 100%. The viability, T/C (second compound 3.16 µM, first compound 0.3 µM) was 95%, the viability, T/C (second compound 3.16 µM, first compound 0.949 µM) was 70.5% and the viability, T/C (second compound 3.16 µM, first compound 3 µM) was 63.5%. For the same compound, the viability, T/C (second compound 10 µM, first compound 0.00949 µM) was 97.3%, the viability, T/C (second compound 10 µM, first compound 0.03 µM) was 99.3% and the viability, T/C (second compound 10 µM, first compound 0.0949 µM) was 75.5%. For the same compound, the viability, T/C (second compound 10 µM, first compound 0.3 µM) was 66.7%, the viability, T/C (second compound 10 µM, first compound 0.949 µM) was 63.3% and the viability, T/C (second compound 10 µM, first compound 3 µM) was 48.7%.

Work on `COc1cc(C2c3cc4c(cc3C(OC3OC5COC(C)OC5C(O)C3O)C3COC(=O)C23)OCO4)cc(OC)c1O` (stereo unspecified) + Cc1cccc(N(C)C(=O)C2C(O)CCN2c2nc(C)cc(C(F)(F)F)c2C#N)c1 yielded an IC50 (second compound 0.0316 µM) of 8.07 µM, an IC50 (second compound 0.1 µM) of 6.05 µM and an IC50 (second compound 0.316 µM) of 8.24 µM. For the same compound, the IC50 (second compound 1 µM) was 8.49 µM, the IC50 (second compound 3.16 µM) was 6.33 µM and the IC50 (second compound 10 µM) was 1.72 µM. For the same compound, the viability, T/C [1] was 101%, the viability, T/C [2] was 90% and the viability, T/C [3] was 91.2%. It also gave a viability, T/C [4] of 93.2%, a viability, T/C [5] of 89.8% and a viability, T/C [6] of 40.9%. For the same compound, the viability, T/C [7] was 101%, the viability, T/C [8] was 98.9% and the viability, T/C [9] was 95.9%. For the same compound, the viability, T/C [10] was 96.3%, the viability, T/C [11] was 68.9% and the viability, T/C [12] was 35.3%. The viability, T/C [13] was 112%, the viability, T/C [14] was 102% and the viability, T/C [15] was 99.5%. It also gave a viability, T/C [16] of 93.4%, a viability, T/C [17] of 80.8% and a viability, T/C [18] of 43.3%. It also gave a viability, T/C [19] of 92.2%, a viability, T/C [20] of 98.8% and a viability, T/C [21] of 96.3%. For the same compound, the viability, T/C [22] was 88.5%, the viability, T/C [23] was 76.5% and the viability, T/C [24] was 45.6%. For the same compound, the viability, T/C [25] was 102%, the viability, T/C [26] was 95.8% and the viability, T/C [27] was 89.9%. For the same compound, the viability, T/C [28] was 86%, the viability, T/C [29] was 74.9% and the viability, T/C [30] was 34.8%. The viability, T/C [31] was 100%, the viability, T/C [32] was 79.9% and the viability, T/C [33] was 92.1%. The viability, T/C [34] was 65.6%, the viability, T/C [35] was 32.1% and the viability, T/C [36] was 21.6%.

Work on `O=c1[nH]cc(F)c(=O)[nH]1` + Cc1cccc(N(C)C(=O)C2C(O)CCN2c2nc(C)cc(C(F)(F)F)c2C#N)c1 yielded an IC50 (second compound 0.0316 µM) of 2.29 µM, an IC50 (second compound 0.1 µM) of 2.13 µM and an IC50 (second compound 0.316 µM) of 2.1 µM. It also gave an IC50 (second compound 1 µM) of 2.28 µM, an IC50 (second compound 3.16 µM) of 2.54 µM and an IC50 (second compound 10 µM) of 2.49 µM. It also gave a viability, T/C [1] of 102%, a viability, T/C [2] of 100% and a viability, T/C [3] of 93%. For the same compound, the viability, T/C [4] was 90%, the viability, T/C [5] was 34.6% and the viability, T/C [6] was 16.3%. It also gave a viability, T/C [7] of 89.5%, a viability, T/C [8] of 95.7% and a viability, T/C [9] of 97.8%. For the same compound, the viability, T/C [10] was 94.4%, the viability, T/C [11] was 26.9% and the viability, T/C [12] was 17.5%. It also gave a viability, T/C [13] of 108%, a viability, T/C [14] of 96.1% and a viability, T/C [15] of 102%. The viability, T/C [16] was 86.6%, the viability, T/C [17] was 29.7% and the viability, T/C [18] was 14.8%. The viability, T/C [19] was 103%, the viability, T/C [20] was 102% and the viability, T/C [21] was 98.1%. The viability, T/C [22] was 97.3%, the viability, T/C [23] was 31.1% and the viability, T/C [24] was 15.9%. It also gave a viability, T/C [25] of 103%, a viability, T/C [26] of 104% and a viability, T/C [27] of 101%. It also gave a viability, T/C [28] of 90.5%, a viability, T/C [29] of 40.6% and a viability, T/C [30] of 12.1%. For the same compound, the viability, T/C [31] was 104%, the viability, T/C [32] was 98.8% and the viability, T/C [33] was 111%. The viability, T/C [34] was 94.6%, the viability, T/C [35] was 38.3% and the viability, T/C [36] was 13.5%.
